Laboratory results: ChEMBL document CHEMBL1250443, “Microarray-based method for monitoring yeast overexpression strains reveals small-molecule targets in TOR pathway” (Nat Chem Biol, 2006)

Columns and labels:
[1] = Inhibition of TOR signaling in wild-type Saccharomyces cerevisiae transformed with overexpression plasmids assessed as increased NAM7 gene expression by microarray
[2] = Inhibition of TOR signaling in wild-type Saccharomyces cerevisiae transformed with overexpression plasmids assessed as increased SSH1 gene expression by microarray
[3] = Inhibition of TOR signaling in wild-type Saccharomyces cerevisiae transformed with overexpression plasmids assessed as increased TIF2 gene expression by microarray
[4] = Inhibition of TOR signaling in wild-type Saccharomyces cerevisiae transformed with overexpression plasmids assessed as increased CDC33 gene expression by microarray
[5] = Inhibition of TOR signaling in wild-type Saccharomyces cerevisiae transformed with overexpression plasmids assessed as increased HCA4 gene expression by microarray
[6] = Inhibition of TOR signaling in wild-type Saccharomyces cerevisiae transformed with overexpression plasmids assessed as decreased HES1 gene expression by microarray
[7] = Inhibition of TOR signaling in wild-type Saccharomyces cerevisiae transformed with overexpression plasmids assessed as increased CIT1 gene expression by microarray
[8] = Inhibition of TOR signaling in wild-type Saccharomyces cerevisiae transformed with overexpression plasmids assessed as increased PZF1 gene expression by microarray
[9] = Inhibition of TOR signaling in wild-type Saccharomyces cerevisiae transformed with overexpression plasmids assessed as decreased YKL174C gene expression by microarray
[10] = Inhibition of TOR signaling in wild-type Saccharomyces cerevisiae transformed with overexpression plasmids assessed as increased RTT106 gene expression by microarray
[11] = Inhibition of TOR signaling in wild-type Saccharomyces cerevisiae transformed with overexpression plasmids assessed as decreased MSB3 gene expression by microarray
[12] = Inhibition of TOR signaling in wild-type Saccharomyces cerevisiae transformed with overexpression plasmids assessed as decreased PRM6 gene expression by microarray
[13] = Inhibition of TOR signaling in wild-type Saccharomyces cerevisiae transformed with overexpression plasmids assessed as increased LIN1 gene expression by microarray
[14] = Inhibition of TOR signaling in wild-type Saccharomyces cerevisiae transformed with overexpression plasmids assessed as decreased YCR007C gene expression by microarray
[15] = Inhibition of TOR signaling in wild-type Saccharomyces cerevisiae transformed with overexpression plasmids assessed as increased YLR297W gene expression by microarray
[16] = Inhibition of TOR signaling in wild-type Saccharomyces cerevisiae transformed with overexpression plasmids assessed as decreased YNL305C gene expression by microarray
[17] = test system: Saccharomyces cerevisiae; assay: Decrease of YJL051W gene expression in wild-type Saccharomyces cerevisiae transformed with overexpression plasmids by microarray; type: functional
[18] = Inhibition of TOR signaling in wild-type Saccharomyces cerevisiae transformed with overexpression plasmids assessed as increased CDC5 gene expression by microarray
[19] = Inhibition of TOR signaling in wild-type Saccharomyces cerevisiae transformed with overexpression plasmids assessed as increased ZDS2 gene expression by microarray
[20] = Inhibition of TOR signaling in wild-type Saccharomyces cerevisiae transformed with overexpression plasmids assessed as decreased HMI1 gene expression by microarray

- fold change (FC) [1]: 6.4
- fold change (FC) [2]: 2.3
- fold change (FC) [3]: 2.6
- fold change (FC) [4]: 2
- fold change (FC) [5]: 2.9
- fold change (FC) [6]: -3.1
- fold change (FC) [7]: 2.1
- fold change (FC) [8]: 2.1
- fold change (FC) [9]: -5.6
- fold change (FC) [10]: 8.3
- fold change (FC) [11]: -2
- fold change (FC) [12]: -4.4
- fold change (FC) [13]: 2.5
- fold change (FC) [14]: -2.2
- fold change (FC) [15]: 3.6
- fold change (FC) [16]: -2.5
- fold change (FC) [18]: 3.4
- fold change (FC) [19]: 13.6
- fold change (FC) [20]: -2.3
SMILES: CO[C@H]1C[C@@H]2CC[C@@H](C)[C@@](O)(O2)C(=O)C(=O)N2CCCC[C@H]2C(=O)O[C@H]([C@H](C)C[C@@H]2CC[C@@H](O)[C@H](OC)C2)CC(=O)[C@H](C)/C=C(\C)[C@@H](O)[C@@H](OC)C(=O)[C@H](C)C[C@H](C)/C=C/C=C/C=C/1C [SIROLIMUS]
- fold change (FC) [17]: -2.5
